Read-outs that look alike come from different tables or passages of the source.

The conditions of assay [1]: for % Control: Table IV; for Percent Control of Pitch: Table VI. As to the method: The slurry contained 0.5% bleached hardwood Kraft fiber, approximately 2000 parts per million of the potassium salt of a fatty acid blend, approximately 200 parts per million calcium from calcium chloride and approximately 300 parts per million sodium carbonate. The slurry was maintained at 50 °C and at a pH of 11.
It was stirred gently by an overhead stirrer and subjected to ultrasonic energy for 10 minutes. The deposit weight was determined by subtracting the starting weight of the pan from the weight of the pan plus the deposit after completion of the test. […] Studies of this type were conducted using hydrophobically modified associative polymers of the type described in this invention.

Assay [2] can be described thus: Stickie coupon peel strength test modified to examine the effect of dilution. To be noted: Concen. 50 ppm; for 1st Dilution: 30 minutes in distilled water after the initial immersion; for No Dilution: Table X. The text has this: In order to establish the efficacy of the materials used in the present invention as deposition control agents, on plastic surfaces and specifically for adhesive contaminants of the sort found in recycled fiber, a laboratory test was devised utilizing adhesive-backed tapes as stickie coupons. The stickie coupon can be fabricated from any type of adhesive tape that will not disintegrate when placed in water. For the study, tapes made from a styrenebutadiene rubber and vinylic esters were used. Both of these potential organic contaminants are known to cause problems "stickies" in secondary fiber utilization. A second coupon was fabricated from polyester film such as the product marketed as MYLAR by the DuPont Chemical Company. This material was chosen because papermachine forming fabrics are frequently made of polyester which is susceptible to considerable problem caused by stickies.
500 mL of solutions in 600 mL beakers containing various deposit control agents are placed in a water bath heated to 50 °C. The tape and the polyester film coupons are placed in the test solution so the adhesive side of the coupon faces away from the polyester film coupon. After 1 hour of immersion, the adhesive side of the stickie coupon is placed in contact with the polyester coupon and pressed to 1000 pound force.
The average peel strength of the bond formed between the tape coupon and the polyester coupon was measured with an Instron tensile tester. The peel strength of the bond formed between the stickie tape coupon and the polyester coupon was interpreted as a measure of the tendency for an organic contaminant to attach to components of a paper-machine and cause runnability or product quality problems. More specifically, this indicates the tendency of a stickies deposit to form on a plastic surface.
Papermaking consists of various processes which can be affected by sudden changes in pH, temperature, dilution (i.e., concentration), shear force, etc. Severe changes in these parameters can cause system shock which adversely impact paper production. Deposit control agents that can strongly adsorb onto the organic contaminant surface and resist the desorbing effects of dilution are highly desirable. Not only will deposition control be improved, but also the required dosage will be reduced, while negative side effects, such as forming and wet-end interferences, will be reduced or eliminated. The procedure outlined in Table VIII was modified to examine the effect of dilution on deposition control. Dilution was accomplished by immersing the adhesive tape and MYLAR in distilled water for 30 minutes after the initial immersion. This can be repeated as many times as desired.

With “Nonyl Phenol Ethoxylate [Nonyl Phenol Ethoxylate (Surfonic N-95)]”, in assay [1] (10 ppm), the “% Control” value turned out to be 9% and the “Percent Control of Pitch” value is 9%. Further, in assay [1] (50 ppm), the “% Control” value was determined as 81% and the “Percent Control of Pitch” value worked out at 81%.
Turning to “dodecylphenoxypoly(ethyleneoxy) ethanol [Sample 3]”, in assay [2], the “2nd Dilution” value is recorded as 16, the “3rd Dilution” value was 5, the “4th Dilution” value is 0 and the “1st Dilution” value is given as 34. Also, in assay [2], the “No Dilution” value amounted to 100.
On the same counts, the results for nonylphenol ethoxylate [Sample 2] are 2, 0, 0, 8 and 100.
The corresponding values for “octylphenoxy poly(ethyleneoxy)ethanol [Sample 1]” are 0, 0, 0, 5 and 100.

(Values after patent EP0568229A1, “Control of deposition of organic contaminants in pulp and papermaking systems” (BETZ EUROPE, INC., priority 1992, dated 1993).)
